Data from the NIST ThermoML archive (doi:10.1016/j.fluid.2016.08.035).

Tests used:
[1] = xn = mol fraction of the nth substance listed; conditions: 101 kPa, Liquid; for viscosity: Falling or rolling sphere viscometry; for speed of sound: Sing-around technique in a fixed-path interferometer; for mass density: Vibrating tube method
[2] = molar heat capacity at constant pressure; xn = mol fraction of the nth substance listed; conditions: 101 kPa, Liquid, DSC

CC12CCC(CC1)C(C)(C)O2 [1,3,3-trimethyl-2-oxabicyclo[2.2.2]octane] + CCCCCCCCCC
Conditions | mass density, [1] [kg/m3] | molar heat capacity at constant pressure, [2] [J/K/mol] | speed of sound, [1] [m/s] | viscosity, [1] [mPa·s]
278.15 K, x1 = 0.1066 | 758.86 | 299.16 | 1315.5 | 1.29
278.15 K, x1 = 0.2007 | 775.04 | 293.5 | 1316.6 | 1.39
278.15 K, x1 = 0.2965 | 792.05 | 287.99 | 1318.2 | 1.5
278.15 K, x1 = 0.4063 | 812.26 | 282.04 | 1321.2 | 1.66
278.15 K, x1 = 0.5005 | 830.26 | 277.25 | 1324.7 | 1.82
278.15 K, x1 = 0.5959 | 849.15 | 272.59 | 1329 | 2.05
278.15 K, x1 = 0.7007 | 870.67 | 267.96 | 1335 | 2.39
278.15 K, x1 = 0.7989 | 891.66 | 263.81 | 1341.8 | 2.86
278.15 K, x1 = 0.8956 | 913.12 | 259.87 | 1349.5 | 3.41
278.15 K, x1 = 1 | 937.25 | 256.14 | 1359.6 | 4.21
298.15 K, x1 = 0.1066 | 743.66 | 308.32 | 1235.6 | 0.93
298.15 K, x1 = 0.2007 | 759.71 | 303.12 | 1237 | 1
298.15 K, x1 = 0.2965 | 776.57 | 298.17 | 1239.1 | 1.07
298.15 K, x1 = 0.4063 | 796.58 | 292.62 | 1242.3 | 1.16
298.15 K, x1 = 0.5005 | 814.39 | 288.12 | 1245.7 | 1.26
298.15 K, x1 = 0.5959 | 833.07 | 283.78 | 1250 | 1.41
298.15 K, x1 = 0.7007 | 854.34 | 279.2 | 1255.6 | 1.61
298.15 K, x1 = 0.7989 | 875.07 | 275.24 | 1261.9 | 1.86
298.15 K, x1 = 0.8956 | 896.24 | 271.44 | 1269.3 | 2.16
298.15 K, x1 = 1 | 920.04 | 267.69 | 1278.4 | 2.6
318.15 K, x1 = 0.1066 | 728.29 | 318.26 | 1157.5 | 0.71
318.15 K, x1 = 0.2007 | 744.21 | 313.35 | 1159.5 | 0.75
318.15 K, x1 = 0.2965 | 760.92 | 308.63 | 1162 | 0.81
318.15 K, x1 = 0.4063 | 780.75 | 303.32 | 1165.5 | 0.87
318.15 K, x1 = 0.5005 | 798.4 | 298.96 | 1169.1 | 0.93
318.15 K, x1 = 0.5959 | 816.88 | 294.7 | 1173.4 | 1.02
318.15 K, x1 = 0.7007 | 837.92 | 290.19 | 1179 | 1.14
318.15 K, x1 = 0.7989 | 858.42 | 286.17 | 1184.9 | 1.29
318.15 K, x1 = 0.8956 | 879.33 | 282.47 | 1192.3 | 1.48
318.15 K, x1 = 1 | 902.84 | 278.65 | 1201 | 1.73
338.15 K, x1 = 0.1066 | 712.7 | 328.92 | 1081.8 | 0.58
338.15 K, x1 = 0.2007 | 728.49 | 324.19 | 1083.9 | 0.6
338.15 K, x1 = 0.2965 | 745.06 | 319.65 | 1087.1 | 0.64
338.15 K, x1 = 0.4063 | 764.73 | 314.6 | 1091.2 | 0.69
338.15 K, x1 = 0.5005 | 782.2 | 310.38 | 1094.9 | 0.73
338.15 K, x1 = 0.5959 | 800.51 | 306.21 | 1099.3 | 0.79
338.15 K, x1 = 0.7007 | 821.36 | 301.78 | 1105.3 | 0.88
338.15 K, x1 = 0.7989 | 841.62 | 297.82 | 1111.3 | 0.98
338.15 K, x1 = 0.8956 | 862.32 | 294.23 | 1118.5 | 1.1
338.15 K, x1 = 1 | 885.57 | 290.33 | 1126.7 | 1.27
